“And” between values parts separate entries of the source, which are not always exact repeats. Equal entries are not always repeated. Where two headings read alike, the source gives them in different places.
What was measured:
5-HT2A receptor = target: T1, 5-HT2A receptor (Homo sapiens, UniProt P28223); assay: FLIPR Ca2+ flux functional assay, agonist activity at 5-HT2A; format: cell-based
T1 construct: host or cells: HEK293
Procedure: (§1) Activity at 5-HT2A, 5-HT2B and 5-HT2C receptors was determined using a FLIPR Ca2+ flux assay at WuXi AppTec Co. Ltd. (Hong Kong) Discovery Biology Unit according to their standard protocols. Briefly, stably transfected cells expressing the receptor of interest (HEK293 for 5-HT2A and 5-HT2C; CHO-K1 for 5-HT2B) were grown and plated in a 384 well plate and incubated at 37° C. and 5% CO2 overnight. A 250 mM stock solution of probenecid in FLIPR calcium assay buffer (10 mL) was freshly prepared and combined with a fluorescent dye (Fluo-4 Direct) to give a final assay concentration of 2.5 mM. Reference compounds were 4-fold serially diluted and the screening compounds were 3-fold serially diluted in 100% DMSO for 10 points using Agilent Bravo, and 750 nL was added to a 384 well compound plate using Echo along with 30 μL assay buffer. The fluorescent dye was then added to the assay plate along with assay buffer to a final volume of 40 μL. The cell plate was incubated for 50 min at 37° C. and 5% CO2 and placed into the FLIPR Tetra along with the compound plate. 10 μL of references and compounds were then transferred from the compound plate into the cell plate and the fluorescent signal was read.

5-HT2B receptor = target: T2, 5-HT2B receptor (Homo sapiens, UniProt P41595); assay: FLIPR Ca2+ flux functional assay, agonist activity at 5-HT2B; format: cell-based
T2 construct: host or cells: CHO-K1
Procedure: as §1

[1] = In vivo pharmacokinetics: plasma and brain exposure after IP administration; set-up: species or system male C57BL/6 mice
Procedure: The systemic exposure of selected examples was studied in non-fasted male C57BL/6 mice weighing between 18.9-25.5 g. Mice had access to food and water ad libitum throughout the pre- and post-dose sampling period.
On the day of dosing, the formulation of each compound was prepared by dissolving solid compound in phosphate buffer saline (50 mM) using vortexing, creating colourless solutions (pH 6.4-6.5) for each compound.
Compounds were dosed to mice by IP injection (10 mL/kg dose volume via a 27G needle; n=9 mice per compound) and blood samples were collected at 5 and 30 min; 1, 2 and 4 h post-dose (n=3 mice per time point for each compound). A maximum of three blood samples were obtained from each mouse, with plasma samples being taken via submandibular bleed (approximately 120 μL). Once collected, blood samples were centrifuged immediately, supernatant plasma was removed, and stored at −80° C. until analysis by LCMS. In addition, at the 5 and 30 min and 4 h post-dose time points, the whole brain was rapidly removed from the carcass soon after the blood collection. The whole brains were blotted to remove excess blood, placed into pre-weighed polypropylene vials, and weighed. The brains were snap frozen in dry ice and subsequently stored frozen (−80° C.) until analysis.
Test compound standard solutions were diluted from a concentrated stock solution (32 mM in H2O) using 50% can in H2O (v/v) and a calibration curve was prepared in a matched matrix to the test samples.
Plasma: The plasma calibration curve was prepared by spiking aliquots of blank mouse plasma (25 μL) with test compound standard solutions (5 μL) and internal standard solution (5 μL of diazepam, 5 μg/mL in 50% acetonitrile in water). Test plasma samples (25 μL) were thawed, mixed, and then spiked with internal standard solution (5 μL). Plasma protein precipitation was performed by addition of acetonitrile (3-fold volume ratio) and thorough vortex mixing. Samples were centrifuged (RCF=9391×g) for 3 minutes and the supernatant (90 μL) was collected for analysis.
Tissue: Pre-weighed tissue samples (brain) were homogenised using a glass rod in buffer containing an EDTA/potassium fluoride solution (0.1 M/4 mg/mL) as a stabilisation cocktail to minimise the potential for ex vivo degradation (3 mL cocktail/g tissue). The tissue homogenate was briefly centrifuged (RCF=79×g) for 10 seconds to separate the foam layer before transferring an aliquot of the tissue homogenate (200 μL) to a fresh Eppendorf tube for sample extraction. Calibration standards were prepared by spiking blank brain homogenate (200 μL) with the solution standards (10 μL) and the internal standard (10 μL). Study samples were similarly prepared, except that acetonitrile (10 μL) was added instead of solution standards to maintain the same volume. Protein precipitation was carried out by the addition of a 3-fold volume of acetonitrile, followed by vortex mixing and centrifugation (RCF=9391×g) for 3 min to recover the supernatant for analysis.
Replicate analysis: Triplicate analytical replicate (ARs) samples were prepared similarly to the standards for each sample type at three concentrations (50, 500 and 2,000 ng/mL) and repeat injections of these ARs were included throughout the analytical run to assess assay performance. The extraction of the test compound from the standards and ARs were conducted as described above.

C57BL/6J mice = assay: Biotelemetry and head-twitch response (HTR) experiments; format: in vivo, Mice (C57BL/6J males); conditions: male C57BL/6 mice, SC, several doses (0.03 to 30 mg/kg)
Excerpt: Mice (C57BL/6J males) were purchased from the Jackson Laboratory (Bar Harbor, ME, USA) at 5-6 weeks of age and allowed at least 1-2 weeks to acclimate to the NIDA, Intramural Research Program (IRP), animal research facility in Baltimore, MD, USA. The animal facility is fully accredited by the Association for the Assessment and Accreditation of Laboratory Animal Care, and all procedures were approved by the NIDA IRP Animal Care and Use Committee. Mice were initially group housed 3-5 per cage during acclimation and housed in a 12 h light-dark cycle throughout the study, with lights on at 0700 h. Food and water were available ad libitum except during testing. Cohorts of 20-24 mice were used for each test drug. The mice were subjected to experimental testing once every 1-2 weeks for 2-3 months to complete dose-effect curves and antagonist experiments. A minimum of 7 days between treatments was utilized to avoid any tolerance to effects of repeated drug administration. All drug doses represent the weight of the salt dissolved in 0.9% saline vehicle. Mice were tested first in dose-response studies to assess the effects of each compound at doses from 0.03 to 30 mg/kg s.c. and were subsequently tested in antagonist reversal studies utilizing pretreatment with M100907 and WAY100635. All experiments were conducted from 0900 to 1700 local time during the light phase, as sensitivity of rodents to other tryptamine psychedelics is diurnal, with maximal HTR observed in the middle of the light phase. Experiments were run during the light phase also to avoid any potential influence of melatonin receptor activity on HTR as melatonin and related agonists are known to reduce HTR induced by DOI in rats. For each experiment, mice were acclimated to the testing room in their home cage for at least 1 h prior to experimental sessions. Behavioral test sessions were carried out in Tru Scan mouse locomotor arenas equipped with photobeam arrays (Coulbourn Instruments, Holliston, MA, USA), which were modified with cylindrical inserts and transparent floors useful in detecting mouse HTR.
Subcutaneous Temperature Transponder Implants. At least 1 week prior to the start of the experiments, mice received s.c. implanted temperature transponders (14×2 mm, model IPTT-300, Bio Medic Data Systems, Inc., Seaford, DE, USA) under brief isoflurane anesthesia. Mice were single housed post implant for the remainder of the study to protect the transponder from removal by cage mates. Temperature was determined noninvasively using a handheld receiver that is sensitive to signals emitted from the implanted transponders.
Prior to each experiment, mouse body weight and temperature were recorded. Mice were then placed into testing chambers for acclimation. In dose-response studies, after a brief 5 min acclimation, mouse body temperature was recorded for baseline measurement, mice received s.c. injection of test substance or vehicle, and animals were returned to the testing arena for 30 min. During the session, locomotor activity was monitored via photobeam tracking of movements in the horizontal plane to yield distance traveled in centimeter. HTR was monitored by the analysis of GoPro Hero Black 7 video recordings (120 frames per sec and 960p resolution) using a commercially available software package from Clever Sys Inc. (Reston, VA, USA). 82 Post-treatment body temperature values were also recorded, and temperature data are represented as change from pretreatment baseline.
In antagonist reversal experiments, mice received a s.c. injection of either receptor antagonists or vehicle and were returned to the testing chamber for 30 min. During this period, locomotor activity was monitored to examine the potential effects of antagonist treatment on general behavior or movement. At 30 min after antagonist administration, mice were given test drug or vehicle and returned to the chambers for an additional 30 min of video recording used for analyses. […]

5-HT2C receptor = target: T3, 5-HT2C receptor (Homo sapiens, UniProt P28335); assay: FLIPR Ca2+ flux functional assay, agonist activity at 5-HT2C; format: cell-based
T3 construct: host or cells: HEK293
T3 sequence (P28335 33-458): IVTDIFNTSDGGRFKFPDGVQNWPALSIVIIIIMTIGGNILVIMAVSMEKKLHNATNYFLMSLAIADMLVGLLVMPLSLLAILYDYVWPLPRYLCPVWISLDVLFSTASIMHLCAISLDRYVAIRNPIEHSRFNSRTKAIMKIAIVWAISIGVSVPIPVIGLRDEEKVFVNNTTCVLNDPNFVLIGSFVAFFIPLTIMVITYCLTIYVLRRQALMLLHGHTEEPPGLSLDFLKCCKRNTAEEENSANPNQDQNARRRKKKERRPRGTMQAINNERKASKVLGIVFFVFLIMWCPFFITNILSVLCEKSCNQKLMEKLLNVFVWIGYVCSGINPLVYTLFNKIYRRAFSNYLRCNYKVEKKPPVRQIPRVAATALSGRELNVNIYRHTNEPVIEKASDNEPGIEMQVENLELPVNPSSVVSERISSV
Procedure: as §1

Male ICR mice = assay: Acute restraint stress - tail suspension test (TST); format: in vivo; conditions: ICR mice after 5 h acute restraint stress, IP, 10 min before test; P-3 3, 10 mg/kg; P-8 3, 10, 30 mg/kg
Procedure: Male ICR mice (23±3 g) were purchased from BioLASCO (Taipei, Taiwan) at 4-5 weeks of age and allowed 5-7 days to acclimate to the animal research facility at Pharmacology Discovery Services (Taipei, Taiwan). Mice were housed in groups of 10 in a large cage (47×25×15 cm) on a 12-hour light cycle (lights on: 0700) and provided ad libitum food and water except during acute restraint stress and tail-suspension testing. Temperature was maintained at 20-24° C., and all rooms (colony and testing rooms) had similar lighting intensity. All aspects of this work including housing, experimentation, and animal disposal were performed in accordance with the “Guide for the Care and Use of Laboratory Animals: Eighth Edition” (The National Academies Press, Washington, DC, 2011) in a facility accredited by the Association for Assessment and Accreditation of Laboratory Animal Care. […]
Tail Suspension Test (TST) Procedure: Mice were individually suspended on the edge of a shelf, 58 cm above a tabletop, using adhesive tape placed approximately 1 cm from the tip of the tail, for a total duration of 7 minutes. Using a stopwatch, the experimenters blinded to treatment groups recorded the duration of immobility (defined as hanging passively and motionless) during the 5 minutes spanning from 2-7 minutes. The data from 0-2 minutes was not recorded. […]

[2] = 0.083 h, IP 10 mg/kg, individual mouse, 10 mg/kg
[3] = 0.5 h, IP 10 mg/kg, individual mouse, 10 mg/kg
[4] = 4 h, IP 10 mg/kg, individual mouse
[5] = mouse, plasma, male C57BL/6 mice, IP 10 mg/kg
[6] = CHO-K1 cells, Ca2+ flux, read-out: 5-HT2B EC50

T2 sequence (P41595 whole entry): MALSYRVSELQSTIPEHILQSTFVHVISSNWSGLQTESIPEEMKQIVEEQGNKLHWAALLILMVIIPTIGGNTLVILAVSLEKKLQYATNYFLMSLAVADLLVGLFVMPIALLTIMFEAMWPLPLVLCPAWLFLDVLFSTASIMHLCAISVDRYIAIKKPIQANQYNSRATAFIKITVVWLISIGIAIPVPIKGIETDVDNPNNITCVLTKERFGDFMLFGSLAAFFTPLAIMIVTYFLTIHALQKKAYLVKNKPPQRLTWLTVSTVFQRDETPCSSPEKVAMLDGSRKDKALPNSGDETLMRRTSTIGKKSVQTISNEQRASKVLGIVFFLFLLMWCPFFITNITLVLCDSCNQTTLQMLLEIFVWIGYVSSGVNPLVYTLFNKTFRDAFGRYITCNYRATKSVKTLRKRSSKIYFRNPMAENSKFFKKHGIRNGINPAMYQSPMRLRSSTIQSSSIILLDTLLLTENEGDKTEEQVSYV
T1 sequence (P28223 whole entry): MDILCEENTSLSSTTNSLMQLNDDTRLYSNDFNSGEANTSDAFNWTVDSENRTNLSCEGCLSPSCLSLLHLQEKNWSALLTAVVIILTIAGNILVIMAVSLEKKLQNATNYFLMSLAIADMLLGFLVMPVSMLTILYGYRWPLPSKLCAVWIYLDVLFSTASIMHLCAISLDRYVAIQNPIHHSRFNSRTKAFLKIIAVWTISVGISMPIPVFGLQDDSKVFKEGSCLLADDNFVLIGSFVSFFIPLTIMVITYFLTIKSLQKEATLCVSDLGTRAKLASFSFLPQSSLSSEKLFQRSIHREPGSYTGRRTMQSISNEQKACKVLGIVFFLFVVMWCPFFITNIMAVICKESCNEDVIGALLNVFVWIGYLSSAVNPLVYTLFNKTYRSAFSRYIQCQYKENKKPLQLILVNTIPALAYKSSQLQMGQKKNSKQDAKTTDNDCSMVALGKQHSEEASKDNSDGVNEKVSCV

SMILES: COc1ccc2[nH]cc(CCN(C)C)c2n1 [Example P-1, 2-(5-methoxy-1H-pyrrolo[3,2-b]pyridin-3-yl)-N,N-dimethylethan-1-amine]
- EC50 (5-HT2A receptor): 34.9 nM
- Emax (5-HT2A receptor; HEK293 cells, Ca2+ flux): 47.7%
- EC50 (5-HT2B receptor): > 10 µM
- Emax (5-HT2B receptor; CHO-K1 cells, Ca2+ flux): -1.07%
- B:P Ratio, Individual [1, 2]: 0.24 and 0.34
- Plasma Concentration, Individual [1, 2]: 4.30 µM and 7.63 µM
- concentration at 0.5 h ([1]; 0.083 h, IP 10 mg/kg, individual mouse, 10 mg/kg, read-out: Brain Parenchyma Concentration, Individual): 2.06 µM and 1.04 µM and 2.56 µM
- B:P Ratio, Mean ± SD ([1]; 0.083 h, IP 10 mg/kg, n = 3): 0.28 ± 0.048
- B:P Ratio, Individual [1, 3]: 0.30 and 2.3 and 1.0
- Plasma Concentration, Individual [1, 3]: 1.03 µM and 0.307 µM and 0.420 µM
- concentration at 0.5 h ([1]; 0.5 h, IP 10 mg/kg, individual mouse, 10 mg/kg, read-out: Brain Parenchyma Concentration, Individual): 0.307 µM and 0.701 µM and 0.437 µM
- Brain Parenchyma Concentration, Individual [1, 4]: <LLQ
- Plasma Concentration, Individual [1, 4]: <LLQ
- concentration at 0.083 h ([1]; male, C57BL/6, mouse, brain, ip, 10 mg/kg, 0.083 h, n = 3, read-out: Brain Parenchyma Concentration, Mean ± SD): 1.89 ± 0.776 µM
- concentration at 0.5 h ([1]; male, C57BL/6, mouse, brain, ip, 10 mg/kg, 0.5 h, n = 3, read-out: Brain Parenchyma Concentration, Mean ± SD): 0.482 ± 0.201 µM
- Kp at 0.083 h ([1]; male, C57BL/6, mouse, brain/plasma, ip, 10 mg/kg, 0.083 h, individual mouse, read-out: B:P Ratio, Individual): 0.27
- Kp at 0.5 h ([1]; male, C57BL/6, mouse, brain/plasma, ip, 10 mg/kg, 0.5 h, n = 3, read-out: B:P Ratio, Mean ± SD): 1.2 ± 1
- concentration at 0.083 h ([1]; male, C57BL/6, mouse, plasma, ip, 10 mg/kg, 0.083 h, individual mouse, read-out: Plasma Concentration, Individual): 7.66 µM
- concentration at 0.083 h ([1]; male, C57BL/6, mouse, plasma, ip, 10 mg/kg, 0.083 h, n = 3, read-out: Plasma Concentration, Mean ± SD): 6.53 ± 1.93 µM
- concentration at 0.5 h ([1]; male, C57BL/6, mouse, plasma, ip, 10 mg/kg, 0.5 h, n = 3, read-out: Plasma Concentration, Mean ± SD): 0.585 ± 0.387 µM
- Cmax [1, 5]: 6.53 µM
- Tmax [1, 5]: 5 min
- AUC(0-t) ([1]; mouse, plasma, male C57BL/6 mice, IP 10 mg/kg, read-out: Plasma AUC0-last): 1.37 µM·h
- Head-twitch response (HTR) (C57BL/6J mice): not promoting increased head-twitch response
- Tolerability (temperature, locomotor activity) (C57BL/6J mice): well-tolerated
- EC50 (5-HT2C receptor): 18.8 nM
- Emax (5-HT2C receptor; HEK293 cells, Ca2+ flux): 74.3%

SMILES: COc1ccnc2[nH]cc(CCN(C)C)c12 [Example P-4, 2-(4-methoxy-1H-pyrrolo[2,3-b]pyridin-3-yl)-N,N-dimethylethan-1-amine]
- Emax (5-HT2A receptor; HEK293 cells, Ca2+ flux): 35%
- EC50 (5-HT2A receptor; HEK293 cells, Ca2+ flux, read-out: 5-HT2A EC50): 1230 nM
- Emax (5-HT2B receptor; CHO-K1 cells, Ca2+ flux): -0.27%
- EC50 (5-HT2B receptor; [6]): > 10 µM
- Head-twitch response (HTR) (C57BL/6J mice): not promoting increased head-twitch response
- Tolerability (temperature, locomotor activity) (C57BL/6J mice): well-tolerated
- Emax (5-HT2C receptor; HEK293 cells, Ca2+ flux): 17.9%
- EC50 (5-HT2C receptor; HEK293 cells, Ca2+ flux, read-out: 5-HT2C EC50): 241 nM

SMILES: COc1ccc2[nH]nc(CCN(C)C)c2c1 [Example P-8, 2-(5-methoxy-1H-indazol-3-yl)-N,N-dimethylethan-1-amine]
- Immobility time in tail suspension test (Male ICR mice): decrease the immobility time
- EC50 (5-HT2B receptor; [6]): > 10 µM

SMILES: COc1cnc2[nH]cc(CCN(C)C)c2c1 [Example P-3, 2-(5-methoxy-1H-pyrrolo[2,3-b]pyridin-3-yl)-N,N-dimethylethan-1-amine]
- Immobility time in tail suspension test (Male ICR mice): decrease the immobility time
- Head-twitch response (HTR) (C57BL/6J mice): not promoting increased head-twitch response
- Tolerability (temperature, locomotor activity) (C57BL/6J mice): well-tolerated
